# Laboratory results published in ChEMBL document CHEMBL1201862, “PubChem BioAssay data set” (2004).
#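 Five concentrations, 48 hours, 96-well plates. Abbreviation: GI50, concentration required for 50% inhibition of growth.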 The source made the active and inactive calls. No stated cut-off is given here; in the data, active = GI50 up to about 1.1 µM and inactive = higher.
# Columns and labels:
# Assay in all cases: DTP human tumour cell line panel, 48 h
# MDA-N = tested on: MDA-N
# HT-29 = tested on: HT-29
# 786-0 = tested on: 786-0
# SK-MEL-5 = tested on: SK-MEL-5
# OVCAR-5 = tested on: OVCAR-5
# NCI/ADR-RES = tested on: NCI/ADR-RES
# HOP-92 = tested on: HOP-92
# HCT-15 = tested on: HCT-15
# NCI-H522 = tested on: NCI-H522
# OVCAR-3 = tested on: OVCAR-3
# HL-60 = tested on: HL-60
# T47D = tested on: T47D
# EKVX = tested on: EKVX
# SF-268 = tested on: SF-268
# SNB-19 = tested on: SNB-19
# PC-3 = tested on: PC-3
# MCF7 = tested on: MCF7
# CAKI-1 = tested on: CAKI-1
# U-251 = tested on: U-251
# COLO 205 = tested on: COLO 205
# IGROV-1 = tested on: IGROV-1
# OVCAR-4 = tested on: OVCAR-4
# TK-10 = tested on: TK-10
# CCRF-CEM = tested on: CCRF-CEM
# SK-MEL-2 = tested on: SK-MEL-2
# OVCAR-8 = tested on: OVCAR-8
# MOLT-4 = tested on: MOLT-4
# SW-620 = tested on: SW-620
# KM12 = tested on: KM12
# Malme-3M = tested on: Malme-3M
# SF-539 = tested on: SF-539
# HOP-62 = tested on: HOP-62
# LOX IMVI = tested on: LOX IMVI
# SK-MEL-28 = tested on: SK-MEL-28
# SF-295 = tested on: SF-295
# SK-OV-3 = tested on: SK-OV-3
# SN12C = tested on: SN12C
# A549 = tested on: A549
# HCC 2998 = tested on: HCC 2998
# Hs-578T = tested on: Hs-578T
# M14 = tested on: M14
# UACC-257 = tested on: UACC-257
# A498 = tested on: A498
# MDA-MB-231 = tested on: MDA-MB-231
# NCI-H23 = tested on: NCI-H23
# DU-145 = tested on: DU-145
# RXF 393 = tested on: RXF 393
# BT-549 = tested on: BT-549
# UACC-62 = tested on: UACC-62
# ACHN = tested on: ACHN
# HCT-116 = tested on: HCT-116
# NCI-H460 = tested on: NCI-H460
# MDA-MB-435 = tested on: MDA-MB-435
# RPMI-8226 = tested on: RPMI-8226
# UO-31 = tested on: UO-31
# SNB-75 = tested on: SNB-75
# K562 = tested on: K562
# NCI-H226 = tested on: NCI-H226
structure (smiles),measurement,setting,value
CCCCCC(C)C[C@H]1CO[C@H](c2ccc[nH]2)N[C@H]1C(=O)OC (stereo partly drawn),GI50,MDA-N,> 100 µM (inactive)
same,GI50,HT-29,> 100 µM (inactive)
same,GI50,786-0,> 100 µM (inactive)
same,GI50,SK-MEL-5,> 100 µM (inactive)
same,GI50,OVCAR-5,> 100 µM (inactive)
same,GI50,NCI/ADR-RES,> 100 µM (inactive)
same,GI50,HOP-92,29.9 µM (inactive)
same,GI50,HCT-15,> 100 µM
same,GI50,NCI-H522,> 100 µM (inactive)
same,GI50,OVCAR-3,> 100 µM (inactive)
same,GI50,HL-60,> 100 µM (inactive)
same,GI50,T47D,> 100 µM (inactive)
same,GI50,EKVX,> 100 µM (inactive)
same,GI50,SF-268,> 100 µM (inactive)
same,GI50,SNB-19,> 100 µM (inactive)
same,GI50,PC-3,> 100 µM (inactive)
same,GI50,MCF7,> 100 µM (inactive)
same,GI50,CAKI-1,> 100 µM (inactive)
same,GI50,U-251,> 100 µM (inactive)
same,GI50,COLO 205,> 100 µM (inactive)
same,GI50,IGROV-1,> 100 µM (inactive)
same,GI50,OVCAR-4,> 100 µM (inactive)
same,GI50,TK-10,> 100 µM (inactive)
same,GI50,CCRF-CEM,> 100 µM (inactive)
same,GI50,SK-MEL-2,> 100 µM (inactive)
same,GI50,OVCAR-8,> 100 µM (inactive)
same,GI50,MOLT-4,> 100 µM (inactive)
same,GI50,SW-620,> 100 µM (inactive)
same,GI50,KM12,> 100 µM (inactive)
same,GI50,Malme-3M,> 100 µM (inactive)
same,GI50,SF-539,> 100 µM (inactive)
same,GI50,HOP-62,> 100 µM (inactive)
same,GI50,LOX IMVI,> 100 µM (inactive)
same,GI50,SK-MEL-28,> 100 µM (inactive)
same,GI50,SF-295,> 100 µM (inactive)
same,GI50,SK-OV-3,> 100 µM (inactive)
same,GI50,SN12C,> 100 µM (inactive)
same,GI50,A549,> 100 µM (inactive)
same,GI50,HCC 2998,> 100 µM (inactive)
same,GI50,Hs-578T,> 100 µM (inactive)
same,GI50,M14,> 100 µM (inactive)
same,GI50,UACC-257,> 100 µM (inactive)
same,GI50,A498,> 100 µM (inactive)
same,GI50,MDA-MB-231,> 100 µM (inactive)
same,GI50,NCI-H23,> 100 µM (inactive)
same,GI50,DU-145,> 100 µM (inactive)
same,GI50,RXF 393,> 100 µM (inactive)
same,GI50,BT-549,> 100 µM (inactive)
same,GI50,UACC-62,> 100 µM (inactive)
same,GI50,ACHN,> 100 µM (inactive)
same,GI50,HCT-116,> 100 µM (inactive)
same,GI50,NCI-H460,> 100 µM (inactive)
same,GI50,MDA-MB-435,> 100 µM (inactive)
same,GI50,RPMI-8226,> 100 µM (inactive)
Cc1oc2nc1C(=O)NCc1nc(cs1)C(=O)N[C@H](C(C)C)c1nc(cs1)C(=O)N[C@H]2C,GI50,MDA-N,> 100 µM (inactive)
same,GI50,HT-29,65 µM (inactive)
same,GI50,786-0,57.4 µM (inactive)
same,GI50,SK-MEL-5,23.1 µM (inactive)
same,GI50,OVCAR-5,> 100 µM (inactive)
same,GI50,NCI/ADR-RES,30.1 µM (inactive)
same,GI50,HOP-92,61.1 µM (inactive)
same,GI50,UO-31,37.2 µM (inactive)
same,GI50,HCT-15,52.8 µM
same,GI50,NCI-H522,26.7 µM (inactive)
same,GI50,OVCAR-3,> 100 µM (inactive)
same,GI50,T47D,28.5 µM (inactive)
same,GI50,EKVX,> 100 µM (inactive)
same,GI50,SF-268,85.5 µM (inactive)
same,GI50,SNB-75,95.7 µM (inactive)
same,GI50,SNB-19,> 100 µM (inactive)
same,GI50,PC-3,40.3 µM (inactive)
same,GI50,MCF7,82.2 µM (inactive)
same,GI50,CAKI-1,44.9 µM (inactive)
same,GI50,U-251,> 100 µM (inactive)
same,GI50,COLO 205,75.7 µM (inactive)
same,GI50,K562,54.8 µM (inactive)
same,GI50,IGROV-1,29.9 µM (inactive)
same,GI50,OVCAR-4,> 100 µM (inactive)
same,GI50,CCRF-CEM,> 100 µM (inactive)
same,GI50,OVCAR-8,35.2 µM (inactive)
same,GI50,MOLT-4,81.7 µM (inactive)
same,GI50,SW-620,> 100 µM (inactive)
same,GI50,KM12,61.4 µM (inactive)
same,GI50,Malme-3M,> 100 µM (inactive)
same,GI50,SF-539,42.3 µM (inactive)
same,GI50,HOP-62,85.1 µM (inactive)
same,GI50,SK-MEL-28,> 100 µM (inactive)
same,GI50,SF-295,18.4 µM (inactive)
same,GI50,SK-OV-3,> 100 µM (inactive)
same,GI50,SN12C,58.5 µM (inactive)
same,GI50,A549,47.2 µM (inactive)
same,GI50,HCC 2998,43.7 µM (inactive)
same,GI50,Hs-578T,75.3 µM (inactive)
same,GI50,M14,> 100 µM (inactive)
same,GI50,UACC-257,> 100 µM (inactive)
same,GI50,A498,> 100 µM (inactive)
same,GI50,MDA-MB-231,9.57 µM (inactive)
same,GI50,NCI-H23,> 100 µM (inactive)
same,GI50,DU-145,79.3 µM (inactive)
same,GI50,RXF 393,8.34 µM (inactive)
same,GI50,BT-549,> 100 µM (inactive)
same,GI50,UACC-62,81.5 µM (inactive)
same,GI50,ACHN,> 100 µM (inactive)
same,GI50,HCT-116,45.8 µM (inactive)
same,GI50,NCI-H460,66.7 µM (inactive)
same,GI50,NCI-H226,42.9 µM (inactive)
same,GI50,MDA-MB-435,> 100 µM (inactive)
same,GI50,RPMI-8226,14.3 µM (inactive)
